We go through four compounds from PMC6493301, “Targeting host metabolism by inhibition of acetyl-Coenzyme A carboxylase reduces flavivirus infection in mouse models” (Emerging Microbes & Infections, 2019).

What is called IC50 is the concentration needed to halve the response being measured. For orientation: Papp means the rate of passage across a membrane or cell layer, normalised by area and donor concentration. As usually defined, the EC50 is the concentration giving half of the maximal effect. The term CC50 denotes the concentration at which the toxic effect on the cells reaches its halfway point.

One series has as its target rat ACC1 (Rattus norvegicus, UniProt P11497). Put plainly: Radiometric ACC inhibition assay, rat ACC1. In kind it is biochemical. As for the experimental part:
(§1) (-)-Epicgallocathechin gallate, EGCG (catalog no. 0981 S) was from Extrasynthese (Genay, France). […] Apparent permeability was assessed in low-efflux MDCKII cells. In vitro potencies of the inhibitors were determined using a radiometric assay. For tissue culture experiments, drugs were suspended in DMSO. Control cells were treated in parallel with the same amount of DMSO (vehicle). Cell viability was estimated in uninfected cells by ATP measurement using Cell Titer Glo luminescent cell viability assay (catalog no. G7579; Promega, Madison, WI). […] Cells were lysed by adding equal amounts of Cell Titer Glo reagent (100 µL/well) and gentle rocking (2 min) in an orbital shaker. The amount of ATP in each sample was determined by luminescence measurement using white microplates and a TECAN Genius (Zurich, Switzerland) microplate reader.

For series [1], the system named is WNV. Put plainly: Virucidal assay, WNV preincubated with compound then titrated by plaque assay. The conditions noted are these: 5 µg/mL, 1 h at 37°C.
A short description of series [2]: Mouse pharmacokinetics after a single oral dose. In kind it is in vivo. The conditions noted are these: fasted male mice, mean ± SD, n = 3; for Cmax: male, read-out: Cmax, maximum plasma-concentration; for Cmax / AUC / Tmax: mouse, in vivo, po; for AUC: 0.5% methyl cellulose suspension, read-out: AUC(Exp), area under the plasma-concentration-time curve; for Tmax: read-out: Tmax, time to reach the maximum plasma-concentration. Here is the method:
(§2) Pharmacokinetics was analyzed after a single oral (p.o.) dose of the compounds (in a 0.5% methyl cellulose suspension) administered to fasted male mice. […] Antiviral activity in vivo was determined using eight-week-old Swiss albino CD-1 female mice (Envigo, Huntingdon, UK). […] Control mice were treated in parallel with drug vehicle (carboxymethylcellulose). For experiments evaluating the effect of genetic deletion of ACC2 gene on WNV infection, a breeding colony of C57BL/6 ACC2^-/- mice was established from two heterozygous Acab^tm1Dejs females. Age- and sex-matched eight-week-old ACC2^-/- and control wild type (WT) mice were challenged with WNV (1 × 10^4 PFU/animal, i.p.). Animals were monitored daily and received water and food ad libitum.

In the next series the target is human ACC2 (Homo sapiens, UniProt O00763). Put plainly: Radiometric ACC inhibition assay, human ACC2. The class given is biochemical. As for the experimental part: as §1
Chain of human ACC2 (O00763 whole entry): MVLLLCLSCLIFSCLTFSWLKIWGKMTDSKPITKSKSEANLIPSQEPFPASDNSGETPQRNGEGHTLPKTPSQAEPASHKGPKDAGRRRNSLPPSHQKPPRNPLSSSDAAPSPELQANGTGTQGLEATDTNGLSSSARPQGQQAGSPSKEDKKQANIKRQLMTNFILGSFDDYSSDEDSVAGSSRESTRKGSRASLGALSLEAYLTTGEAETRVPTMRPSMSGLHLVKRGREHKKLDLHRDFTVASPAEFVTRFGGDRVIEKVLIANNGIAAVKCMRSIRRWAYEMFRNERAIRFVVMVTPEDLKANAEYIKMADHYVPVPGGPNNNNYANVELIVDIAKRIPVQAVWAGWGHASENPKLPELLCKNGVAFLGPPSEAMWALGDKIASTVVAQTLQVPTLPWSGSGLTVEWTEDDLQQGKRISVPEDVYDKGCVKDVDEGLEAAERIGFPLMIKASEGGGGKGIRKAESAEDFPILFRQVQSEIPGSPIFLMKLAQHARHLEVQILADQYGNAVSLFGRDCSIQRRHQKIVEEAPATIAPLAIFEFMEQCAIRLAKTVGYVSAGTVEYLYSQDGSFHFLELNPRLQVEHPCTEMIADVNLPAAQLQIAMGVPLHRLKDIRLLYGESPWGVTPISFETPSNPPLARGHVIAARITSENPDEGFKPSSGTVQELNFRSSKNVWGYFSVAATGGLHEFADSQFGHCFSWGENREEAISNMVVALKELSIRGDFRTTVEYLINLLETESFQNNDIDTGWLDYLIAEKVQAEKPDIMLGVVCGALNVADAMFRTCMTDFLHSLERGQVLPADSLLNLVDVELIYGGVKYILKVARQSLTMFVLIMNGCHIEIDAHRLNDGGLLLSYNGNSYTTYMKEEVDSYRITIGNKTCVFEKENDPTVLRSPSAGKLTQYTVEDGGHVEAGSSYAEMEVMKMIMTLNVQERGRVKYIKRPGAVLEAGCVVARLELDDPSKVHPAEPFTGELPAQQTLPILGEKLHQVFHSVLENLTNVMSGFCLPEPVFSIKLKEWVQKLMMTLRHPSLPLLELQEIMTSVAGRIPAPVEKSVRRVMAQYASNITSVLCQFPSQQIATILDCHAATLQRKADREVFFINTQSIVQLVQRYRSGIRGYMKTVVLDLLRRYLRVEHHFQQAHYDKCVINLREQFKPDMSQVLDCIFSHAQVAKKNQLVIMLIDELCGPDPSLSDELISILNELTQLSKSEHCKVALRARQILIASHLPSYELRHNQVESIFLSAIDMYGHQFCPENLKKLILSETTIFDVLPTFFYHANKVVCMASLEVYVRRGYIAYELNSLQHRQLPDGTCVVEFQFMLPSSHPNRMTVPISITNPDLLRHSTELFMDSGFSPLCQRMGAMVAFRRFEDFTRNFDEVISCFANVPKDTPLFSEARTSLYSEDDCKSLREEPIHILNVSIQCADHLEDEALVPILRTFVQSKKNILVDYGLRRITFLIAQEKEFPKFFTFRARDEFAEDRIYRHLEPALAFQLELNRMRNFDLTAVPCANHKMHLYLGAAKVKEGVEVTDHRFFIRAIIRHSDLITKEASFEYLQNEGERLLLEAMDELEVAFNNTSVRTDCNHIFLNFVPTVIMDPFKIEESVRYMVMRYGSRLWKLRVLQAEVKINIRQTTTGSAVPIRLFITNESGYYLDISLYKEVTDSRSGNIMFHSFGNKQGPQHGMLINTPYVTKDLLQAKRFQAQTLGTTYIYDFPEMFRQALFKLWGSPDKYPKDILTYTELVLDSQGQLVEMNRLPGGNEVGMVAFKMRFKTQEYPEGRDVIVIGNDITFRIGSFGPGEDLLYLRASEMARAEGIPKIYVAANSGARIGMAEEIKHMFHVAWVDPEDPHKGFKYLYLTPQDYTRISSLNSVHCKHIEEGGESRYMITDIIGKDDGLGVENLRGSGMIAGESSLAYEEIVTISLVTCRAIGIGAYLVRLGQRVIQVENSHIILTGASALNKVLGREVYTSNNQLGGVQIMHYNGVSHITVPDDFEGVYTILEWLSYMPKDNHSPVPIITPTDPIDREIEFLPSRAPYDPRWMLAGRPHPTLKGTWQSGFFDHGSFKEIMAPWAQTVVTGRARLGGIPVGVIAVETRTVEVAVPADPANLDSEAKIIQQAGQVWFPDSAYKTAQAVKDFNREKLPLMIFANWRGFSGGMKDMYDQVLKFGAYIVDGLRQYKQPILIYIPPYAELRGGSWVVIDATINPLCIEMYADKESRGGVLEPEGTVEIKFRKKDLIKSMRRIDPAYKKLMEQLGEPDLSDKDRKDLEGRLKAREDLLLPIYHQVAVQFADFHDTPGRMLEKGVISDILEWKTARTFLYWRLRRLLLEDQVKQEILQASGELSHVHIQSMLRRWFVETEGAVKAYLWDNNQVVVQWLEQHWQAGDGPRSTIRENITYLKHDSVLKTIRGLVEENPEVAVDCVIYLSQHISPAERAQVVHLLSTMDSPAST
A further series addresses human ACC1 (Homo sapiens, UniProt Q13085). In words: Radiometric ACC inhibition assay, human ACC1. In kind it is biochemical. Here is the method:
as §1

Series [3] in a line: Apparent permeability in low-efflux MDCKII cells. The conditions noted are these: dog, MDCK. As for the experimental part:
as §1

For series [4], the system named is WNV. Put plainly: Time of addition assay, WNV-infected Vero cells. In kind it is cell-based, West Nile virus. The conditions noted are these: 5 µg/mL, MOI 1 PFU/cell, 24 h.
The subject of another series is ZIKV. Put plainly: ZIKV multiplication in Vero cells, virus yield by plaque assay. The conditions noted are these: for EC50: Zika virus, Vero, 24 h, read-out: EC50 ZIKV; for SI (CC50/EC50) ZIKV: calculated at 24 h.
In another series the test system is DENV. In words: DENV multiplication in Vero cells, virus yield by plaque assay. The note with it: for EC50: Dengue virus, Vero, 48 h, read-out: EC50 DENV; for SI (CC50/EC50) DENV: calculated at 48 h.
Series [5] has as its system WNV. Put plainly: WNV multiplication in Vero cells, virus yield by plaque assay. The conditions noted are these: for EC50: West Nile virus, Vero, 24 h, read-out: EC50 WNV; for SI (CC50/EC50) WNV: calculated at 24 h.
For another series, the target named is rat ACC2 (Rattus norvegicus, UniProt Q1HEC0). Put plainly: Radiometric ACC inhibition assay, rat ACC2. In kind it is biochemical. As for the experimental part: as §1
Chain of rat ACC2 (Q1HEC0 17-2455): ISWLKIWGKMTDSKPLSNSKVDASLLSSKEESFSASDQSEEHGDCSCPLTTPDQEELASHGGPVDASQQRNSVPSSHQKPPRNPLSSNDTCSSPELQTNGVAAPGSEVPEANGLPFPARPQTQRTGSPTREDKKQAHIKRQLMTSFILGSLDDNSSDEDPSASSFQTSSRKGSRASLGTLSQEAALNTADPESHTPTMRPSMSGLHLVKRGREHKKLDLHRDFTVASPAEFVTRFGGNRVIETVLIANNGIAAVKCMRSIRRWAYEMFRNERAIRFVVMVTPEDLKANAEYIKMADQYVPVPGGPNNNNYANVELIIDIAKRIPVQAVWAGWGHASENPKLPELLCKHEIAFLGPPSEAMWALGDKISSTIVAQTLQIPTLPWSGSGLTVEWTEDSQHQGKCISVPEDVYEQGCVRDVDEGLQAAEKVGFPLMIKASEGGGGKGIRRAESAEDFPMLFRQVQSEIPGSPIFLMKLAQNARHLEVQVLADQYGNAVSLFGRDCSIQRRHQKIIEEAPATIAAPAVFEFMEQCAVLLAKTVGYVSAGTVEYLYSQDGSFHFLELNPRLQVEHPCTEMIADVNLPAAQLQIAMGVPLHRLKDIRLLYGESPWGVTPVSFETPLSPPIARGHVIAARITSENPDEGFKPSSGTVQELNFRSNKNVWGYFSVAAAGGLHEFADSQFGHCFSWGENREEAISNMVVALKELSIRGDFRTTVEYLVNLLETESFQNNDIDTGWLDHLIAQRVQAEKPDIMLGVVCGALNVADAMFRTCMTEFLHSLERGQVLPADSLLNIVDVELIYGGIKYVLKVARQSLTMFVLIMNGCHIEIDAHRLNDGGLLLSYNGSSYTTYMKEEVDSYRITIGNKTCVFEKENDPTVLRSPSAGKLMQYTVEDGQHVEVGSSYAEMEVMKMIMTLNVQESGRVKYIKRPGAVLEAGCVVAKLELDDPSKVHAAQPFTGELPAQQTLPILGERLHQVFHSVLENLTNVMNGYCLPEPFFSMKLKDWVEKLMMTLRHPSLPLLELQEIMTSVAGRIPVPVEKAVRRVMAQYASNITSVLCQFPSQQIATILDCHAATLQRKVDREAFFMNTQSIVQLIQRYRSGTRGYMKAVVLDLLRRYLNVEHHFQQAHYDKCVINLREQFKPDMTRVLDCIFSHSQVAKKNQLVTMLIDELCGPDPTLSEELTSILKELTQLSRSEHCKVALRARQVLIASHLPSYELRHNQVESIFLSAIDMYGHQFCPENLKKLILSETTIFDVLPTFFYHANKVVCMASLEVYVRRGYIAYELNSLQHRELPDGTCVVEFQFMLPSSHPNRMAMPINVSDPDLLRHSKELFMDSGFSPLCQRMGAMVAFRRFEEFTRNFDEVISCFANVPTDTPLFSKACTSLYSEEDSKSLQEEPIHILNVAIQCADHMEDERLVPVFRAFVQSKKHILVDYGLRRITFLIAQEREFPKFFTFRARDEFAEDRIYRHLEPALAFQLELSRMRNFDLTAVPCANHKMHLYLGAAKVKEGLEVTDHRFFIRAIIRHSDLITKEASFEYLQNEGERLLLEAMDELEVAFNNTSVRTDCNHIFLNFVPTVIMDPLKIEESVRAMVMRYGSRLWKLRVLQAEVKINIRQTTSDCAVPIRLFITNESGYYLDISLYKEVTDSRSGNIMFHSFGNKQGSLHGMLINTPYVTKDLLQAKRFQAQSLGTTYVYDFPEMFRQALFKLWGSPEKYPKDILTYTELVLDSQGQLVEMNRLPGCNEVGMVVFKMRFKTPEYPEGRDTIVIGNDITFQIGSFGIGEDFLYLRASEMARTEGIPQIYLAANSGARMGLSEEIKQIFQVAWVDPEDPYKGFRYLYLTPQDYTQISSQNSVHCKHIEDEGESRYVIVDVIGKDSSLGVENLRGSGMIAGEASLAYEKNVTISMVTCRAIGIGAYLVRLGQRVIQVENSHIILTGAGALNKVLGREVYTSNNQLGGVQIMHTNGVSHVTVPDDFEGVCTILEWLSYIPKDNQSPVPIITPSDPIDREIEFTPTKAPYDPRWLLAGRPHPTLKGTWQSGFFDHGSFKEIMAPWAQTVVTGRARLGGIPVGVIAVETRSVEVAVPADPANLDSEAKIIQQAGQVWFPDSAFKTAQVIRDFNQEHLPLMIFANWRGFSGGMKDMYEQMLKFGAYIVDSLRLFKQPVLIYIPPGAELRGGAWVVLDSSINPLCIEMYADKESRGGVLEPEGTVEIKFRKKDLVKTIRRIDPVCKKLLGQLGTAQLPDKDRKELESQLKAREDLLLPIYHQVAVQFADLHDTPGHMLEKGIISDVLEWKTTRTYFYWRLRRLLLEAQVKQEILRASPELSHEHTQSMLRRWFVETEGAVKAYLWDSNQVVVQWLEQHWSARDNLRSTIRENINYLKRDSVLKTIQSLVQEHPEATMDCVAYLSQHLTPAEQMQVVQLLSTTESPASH
Series [6] in a line: Cell viability by ATP measurement (Cell Titer Glo) in uninfected Vero cells. The conditions noted are these: African green monkey. Here is the method:
as §1
On the technique in general: Cellular ATP, detected with luciferase, serves as a proxy for viable cell number.

Series [7] deals with WNV. In words: Antiviral activity against WNV in mice, viral burden by quantitative RT-PCR. In kind it is in vivo. The note with it: CD-1 female mice, 20 mg/kg p.o. twice a day. Here is the method:
as §2
RNA was automatically extracted using a QIAcube equipment (QIAGEN GmbH, Hilden, Germany) and QIAamp viral RNA Mini Kit (QIAGEN, catalog no. 52906) for sera or RNeasy Mini Kit (QIAGEN, catalog no. 74106) for tissue homogenates. The content of viral RNA in each sample was analyzed by real-time fluorogenic reverse transcriptase PCR by comparison with previously titrated samples and determined as PFU equivalents/mL [22].

[8] abbreviates: single p.o. dose 100 mg/kg, 100 mg/kg.
Where [9] appears, read: 100 mg/kg, single p.o. dose 100 mg/kg.
Where [10] appears, read: WNV i.p., 7 days post-infection.

The structures appear in SMILES notation. Like-named read-outs stand apart in the source and are kept apart here.

The compound `COc1ccc2ncc(C(=O)N3CCC4(CC3)CC(=O)c3c(cnn3C(C)C)C4)cc2c1` [PF-06256254] registered a 50% inhibitory concentration (IC50) on rat ACC1 of 0.011 µM. In the series on WNV [1], the “Virucidal effect, remaining WNV infectivity” value is on record as “Lack of virucidal effect”. Besides, the “Cmax, maximum plasma-concentration” value in [2] (setting [8]) was found to be 1070 ± 452 ng/mL. The Cmax in series [2] (setting [9]) fell in the range of 760 to 1070 ng/mL. Further, in series [2] (single p.o. dose 100 mg/kg), the AUC is 2900 ± 1070 ng·h/mL and the Tmax was 33 ± 25.8 min. The same compound showed an IC50 against human ACC2 of 0.01 ± 0.002 µM. Further, it took 0.01 ± 0.002 µM to reach half-maximal inhibition at human ACC1 (IC50). In series [3], the Papp came out at 24 ×10⁻⁶ cm/s. Moreover, the “WNV yield, drug added only 1 h before virus inoculation (pre-infection)” value (from here on “WNV yield … (pre-infection)”) in the series on WNV [4] was “reduced the infection”. Moreover, in the series with ZIKV, the EC50 was below 1.2 µM and the “SI (CC50/EC50) ZIKV” value was above 598. Further, in the series with DENV, the EC50 was 1.5 ± 0.4 µM and the “SI (CC50/EC50) DENV” value is listed as 135. Further, in the series on WNV [5], the half-maximal effective concentration (EC50) is below 1.2 µM and the “SI (CC50/EC50) WNV” value is reported as above 598. This compound also returned an IC50 at rat ACC2 of 0.015 µM. In series [6], this compound had a CC50 at 24 h of 718 ± 314 µM and a cytotoxic concentration (CC50) at 48 h of 202 ± 22 µM.
Turning to `CC(C)n1ncc2c1C(=O)CC1(CCN(C(=O)c3cc4ncccc4[nH]3)CC1)C2` [PF-05206574], the half-inhibitory concentration (IC50) on rat ACC1 turned out to be 0.014 ± 0.003 µM; against human ACC2, 0.022 ± 0.009 µM; against human ACC1, 0.019 ± 0.004 µM; against rat ACC2, 0.018 ± 0.004 µM. In the series on WNV [1], the “Virucidal effect, remaining WNV infectivity” value is reported as “Lack of virucidal effect”. Besides, the “Cmax, maximum plasma-concentration” value in series [2] (setting [8]) amounted to 760 ± 240 ng/mL. Further, in series [2] (setting [9]), the Cmax was in the range of 760 to 1070 ng/mL. For the same compound, in series [2] (single p.o. dose 100 mg/kg), the AUC amounted to 3700 ± 1440 ng·h/mL. Besides, in series [2] (single p.o. dose 100 mg/kg), the Tmax was 23 ± 12 min. Also, in [3], the Papp was found to be 19 ×10⁻⁶ cm/s. In addition, the “WNV yield … (pre-infection)” value in the series on WNV [4] is “reduced the infection”. For the same compound, the values for the concentration for a half-maximal effect (EC50) in the series on ZIKV, in the series with DENV and with WNV [5] were below 1.3 µM, below 1.3 µM and 1.9 ± 0.9 µM, respectively. For the same compound, the “SI (CC50/EC50) ZIKV” value with ZIKV is reported as above 982. The “SI (CC50/EC50) DENV” value in the series on DENV was above 319. Moreover, the “SI (CC50/EC50) WNV” value with WNV [5] is on record as above 672. The cytotoxic concentration (CC50) at 24 h in series [6] was above 1280 µM. In series [6], this compound had a half-maximal cytotoxic concentration (CC50) at 48 h of 415 ± 67 µM.
In the case of `O=C(O[C@@H]1Cc2c(O)cc(O)cc2O[C@@H]1c1cc(O)c(O)c(O)c1)c1cc(O)c(O)c(O)c1` [EGCG, (-)-Epicgallocathechin gallate, reference compound], the “Virucidal effect, remaining WNV infectivity” value in the series on WNV [1] is “virucidal effect”.
With `Cc1nc2ccc(C(=O)N3CCC4(CC3)CC(=O)c3c(cnn3C(C)C)C4)cc2[nH]1` [PF-05175157], the half-maximal inhibitory concentration (IC50) came to 0.024 ± 0.001 µM against rat ACC1; 0.033 ± 0.004 µM on human ACC2 (radiometric assay, geometric mean ± SEM, n = 3, read-out: IC50 human ACC2); 0.027 ± 0.003 µM on human ACC1 (radiometric assay, geometric mean ± SEM, n = 3, read-out: IC50 human ACC1); 0.05 ± 0.003 µM at rat ACC2. The “Virucidal effect, remaining WNV infectivity” value with WNV [1] was “Lack of virucidal effect”. Further, in series [2] (15 mg/kg, single p.o. dose 15 mg/kg), the Cmax worked out at 903 ± 495 ng/mL. Further, the AUC in [2] (single p.o. dose 15 mg/kg) turned out to be 2170 ± 384 ng·h/mL. In addition, the Tmax in series [2] (single p.o. dose 15 mg/kg) was found to be 100 ± 121 min. Besides, in the series with WNV [7] (WNV 1 × 10^4 PFU i.p., 3 and 4 days after infection), the “Viral load in plasma (serum) vs vehicle” value was “significant reduction of viral load in plasma”. In addition, the “Viral RNA in the kidney vs vehicle” value with WNV [7] (setting [10]) is listed as “significant reduction in the amount of viral RNA in the kidney”. In the series on WNV [7] (setting [10]), the “Viral RNA in the lung vs vehicle” value is “tendency for a reduction in the amount of viral RNA in the lung”. In addition, in series [3], the apparent permeability coefficient (Papp) came to 7 ×10⁻⁶ cm/s. Besides, the “WNV yield … (pre-infection)” value in the series with WNV [4] was “did not affect WNV infection”. In addition, the “WNV yield, drug maintained after virus inoculation (post-infection)” value with WNV [4] was “reduced viral production”. The concentration giving a half-maximal response (EC50) is below 1.2 µM in the series with ZIKV, 1 ± 0.3 µM in the series with DENV and 2.7 ± 1.3 µM with WNV [5]. The CC50 at 24 h in series [6] was 590 ± 37 µM. Also, the CC50 at 48 h in [6] is 236 ± 11 µM.
